According to US9526728B2, “Medical use of a DPP-4 inhibitor” (Boehringer Ingelheim International GmbH, priority 2014, dated 2016):

Experiments:
[1] = CKD population; need for dose adjustment; cited from earlier work
[2] = Metabolic parameters (HbA1c, active GLP-1); type: in vivo, rat; settings: seven weeks; for plasma active GLP-1 levels: both sham and SNx rats, linagliptin 1.5 mg/kg/day or sitagliptin 20 mg/kg/day; for HbA1c: sham and SNx rats, linagliptin 1.5 mg/kg/day or sitagliptin 20 mg/kg/day oral gavage
Description: (§1) Briefly, animals were anesthetized with 2.5% inhaled isoflurane, the right kidney was removed via subcapsular nephrectomy and infarction of approximately two thirds of the left kidney was achieved via selective ligation of two out of the three or four branches of the left renal artery. Sham surgery consisted of laparotomy and manipulation of both kidneys before wound closure. Rats were followed for eight weeks after surgery. […] All rats were housed in a stable environment and allowed free access to Reverse Osmosis water and standard rat chow.
Blood glucose was measured with Accu-check Advantage (Roche, Mississauga, Ontario). HbA1c was measured using A1cNow+ (Bayer, Sunnyvale, Calif.). Active GLP-1 was determined using active GLP-1 (v2) kit (Meso Scale Discovery, Rockville, Md.).
Sham and SNx rats treated with vehicle, linagliptin and sitagliptin. Heart weights and kidney weights were increased in SNx rats relative to sham. HbA1c was unchanged in all treatment groups.

[3] = system: subtotally nephrectomized (SNx) rats; assay: Cardiac catheterization, pressure volume loops (cardiac function); type: in vivo, rat; settings: in comparison to vehicle-treated SNx rats, linagliptin 1.5 mg/kg/day or sitagliptin 20 mg/kg/day, seven weeks
Description: as §1
Cardiac catheterization was performed as previously published. Briefly, rats were anesthetized (2% isoflurane), placed on a warming pad (37 °C), intubated and ventilated using positive pressure. The right internal carotid artery was ligated cranially and a 2F miniaturized combined conductance catheter-micromanometer (Model SPR-838, Millar Instruments, Houston, Tex.) was inserted into the carotid artery and advanced into the left ventricle until stable pressure volume (PV) loops were obtained. […] All PV loops were obtained with the ventilator turned off for 5-10 seconds and the animal apneic. […] A range of functional parameters were then calculated using the pressure conductance data (Millar analysis software PVAN 3.4).

[4] = system: subtotally nephrectomized (SNx) rats; assay: Cardiac gene expression (real time PCR); type: in vivo, rat; settings: SNx rats vs vehicle-treated SNx; seven weeks treatment
Description: Briefly, animals were anesthetized with 2.5% inhaled isoflurane, the right kidney was removed via subcapsular nephrectomy and infarction of approximately two thirds of the left kidney was achieved via selective ligation of two out of the three or four branches of the left renal artery. Sham surgery consisted of laparotomy and manipulation of both kidneys before wound closure. Rats were followed for eight weeks after surgery. […] All rats were housed in a stable environment and allowed free access to Reverse Osmosis water and standard rat chow. RNA was isolated from homogenized rat heart tissue using TRIzol reagent (Life Technologies, Grand Island, N.Y.). Total RNA (4 μg) was treated with RQ1 DNase (1U/μl) (Promega, Madison, Wis.). DNase treated RNA (4 μg) was reverse-transcribed in a final volume of 25 μl using 0.5 μl AMV-RT (Roche Diagnostics, Laval, Quebec) in the manufacturer's buffer containing 1 mmol/L dNTPs, 0.5 μl RNase inhibitor (Roche) and 2 μg random hexamers (GE Healthcare Life Sciences, Baie d'Urfe, Quebec). […]

[5] = system: subtotally nephrectomized (SNx) rats; assay: Immunohistochemistry for cardiac collagen I; type: in vivo, rat; settings: SNx rats vs vehicle-treated SNx; seven weeks treatment
Description: as §1
Immunohistochemistry for fibrillar collagen type I (Southern Biotech, Birmingham, Ala.) was performed as previously described with the antibody used at a concentration of 1:400. Stained heart sections were scanned with the Aperio ScanScope system (Aperio, Vista, Calif.) and analysed with ImageScope (Aperio). Interstitial collagen I was determined as the proportional area of positive immunostaining in 10 randomly selected fields (×100 magnification).

[6] = system: subtotally nephrectomized (SNx) rats; assay: Myocyte hypertrophy (H&E stained sections); type: in vivo, rat; settings: SNx rats vs vehicle-treated SNx; seven weeks treatment
Description: as §1
Cardiac myocyte hypertrophy was determined on haematoxylin and eosin (H&E) stained sections, as previously reported. Myocyte cross sectional area was determined on H&E stained sections as adapted from the methods described by Frustaci and colleagues.

[7] = system: subtotally nephrectomized (SNx) rats; assay: Renal function (blood pressure, urine protein excretion, GFR); type: in vivo, rat; settings: seven weeks treatment; for GFR: FITC-inulin clearance
Description: as §1
For estimation of urine protein excretion, rats were individually housed in metabolic cages for 24 h with free access to tap water and standard diet. Urine protein was measured with the benzethonium chloride method. Urinary excretion of markers of renal injury was determined using Rat KidneyMAP v1.0 (Myriad RBM, Austin, Tex.) and expressed as the ratio to urine creatinine determined by autoanalyzer. Glomerular filtration rate (GFR) was determined by FITC-inulin clearance, as previously described.

[8] = system: sham and subtotally nephrectomized (SNx) rats; assay: Renal structure (glomerulosclerosis index, JG-12 and collagen IV immunohistochemistry); type: in vivo, rat; settings: either sham or SNx rats; seven weeks treatment
Description: as §1
A minimum of 50 glomeruli were examined in PAS-stained kidney sections from each rat. […] Glomerulosclerosis was defined as basement membrane thickening, mesangial hypertrophy and capillary occlusion. A glomerulosclerosis index (GSI) was then calculated using the formula:
[formula] Where Fi is the percentage of glomeruli in the rat kidney with a given score (i).
Immunohistochemistry for glomerular capillary density and tubulointerstitial collagen IV Immunohistochemistry of kidney tissue was performed as previously described with antibodies in the following concentrations: JG-12 1:1000 (Bender Medsystems GbdH, Vienna, Austria) and collagen IV 1:100 (Southern Biotech). Kidney sections were scanned with the Aperio ScanScope system and analysed with ImageScope, as already described. Glomerular endothelial (JG-12) immunostaining was determined in 30 glomerular profiles from each rat kidney section. For estimation of tubulointerstitial collagen IV, the proportional area of positive immunostaining (excluding glomeruli) was determined in 10 randomly selected cortical fields (×100 magnification).

[9] = system: patients with type 2 diabetes; settings: recent meta-analysis; cited from earlier work

Structure (SMILES) | route of clearance [1] | plasma active GLP-1 levels [2] | HbA1c [2] | end diastolic pressure volume relationship (EDPVR) [3] | cardiac collagen I mRNA [4] | cardiac collagen I protein [5] | cardiomyocyte size determined in H&E stained sections [6] | GFR [7] | blood pressure [7] | proteinuria [7] | cortical tubulointerstitial collagen IV immunostaining [8] | glomerular capillary density (JG-12 immunostaining) [8] | albuminuria [9]
Cn1c(=O)cc(N2CCC[C@@H](N)C2)n(Cc2ccccc2C#N)c1=O [alogliptin] | cleared in the urine |  |  |  |  |  |  |  |  |  |  |  | 
CC#CCn1c(N2CCC[C@@H](N)C2)nc2c1c(=O)n(Cc1nc(C)c3ccccc3n1)c(=O)n2C [linagliptin, 1-[(4-methyl-quinazolin-2-yl)methyl]-3-methyl-7-(2-butyn-1-yl)-8-(3-(R)-amino-piperidin-1-yl)-xanthine] | secreted via the bile | similarly increased | unchanged | significantly lower | attenuation in the overexpression | attenuation in the overexpression | neither cardiomyocyte size determined in H&E stained sections (FIGS. 2C1 and 2C2) nor α-MHC:β-MHC ratio were changed | neither linagliptin nor sitagliptin significantly affected | neither linagliptin nor sitagliptin significantly affected | neither linagliptin nor sitagliptin significantly affected | None of these markers of renal structural injury were affected | None of these markers of renal structural injury were affected | reduction in albuminuria
N#C[C@@H]1C[C@@H]2C[C@@H]2N1C(=O)[C@@H](N)C12CC3CC(CC(O)(C3)C1)C2 [saxagliptin] | cleared in the urine |  |  |  |  |  |  |  |  |  |  |  | 
N[C@@H](CC(=O)N1CCn2c(nnc2C(F)(F)F)C1)Cc1cc(F)c(F)cc1F [sitagliptin] | cleared in the urine | similarly increased | unchanged | significantly lower | attenuation in the overexpression | attenuation in the overexpression | neither cardiomyocyte size determined in H&E stained sections (FIGS. 2C1 and 2C2) nor α-MHC:β-MHC ratio were changed | neither linagliptin nor sitagliptin significantly affected | neither linagliptin nor sitagliptin significantly affected | neither linagliptin nor sitagliptin significantly affected | None of these markers of renal structural injury were affected | None of these markers of renal structural injury were affected | 
